Read-outs that look alike come from different tables or passages of the source.
Tests used:
MMP 13 = MMP 13 (Homo sapiens, UniProt P45452); experiment: MMP 13 inhibition (HTS; method not described); type: biochemical; conditions: HTS; for inhibition at 0.036 µM: read-out: MMP 13 % inhibition at 36 nM (HTS); for MMP 13 % inhibition at 36 nM (HTS) / inhibition at 0.036 µM: 36 nM; for inhibition at 0.2 µM: read-out: MMP 13 % inhibition at 0.2 µM (HTS)
TACE = molecular target: T1, TACE (Homo sapiens, UniProt P78536); experiment: Procedure for Measuring TACE Inhibition; type: biochemical; conditions: for inhibition at 1 µM: read-out: TACE % inhibition at 1 µM
T1 construct: purchased Immunex
Description: Using 96-well black microtiter plates, each well receives a solution composed of 10 µL TACE (Immunex, final concentration 1µg/mL), 70µL Tris buffer, pH 7.4 containing 10% glycerol (final concentration 10 mM), and 10 µL of test compound solution in DMSO (final concentration 1µM, DMSO concentration <1%) and incubated for 10 minutes at room temperature. The reaction is initiated by addition of a fluorescent peptidyl substrate (final concentration 100 µM) to each well and then shaking on a shaker for 5 sec. The reaction is read (excitation 340 nm, emission 420 nm) for 10 min. and the increase in fluorescence over time is plotted as a linear line. The slope of the line is calculated and represents the reaction rate. The linearity of the reaction rate is confirmed (r^2 >0.85). The mean (x±sem) of the control rate is calculated and compared for statistical significance (p<0.05) with drug-treated rates using Dunnett's multiple comparison test.

T1 sequence (P78536 215-824): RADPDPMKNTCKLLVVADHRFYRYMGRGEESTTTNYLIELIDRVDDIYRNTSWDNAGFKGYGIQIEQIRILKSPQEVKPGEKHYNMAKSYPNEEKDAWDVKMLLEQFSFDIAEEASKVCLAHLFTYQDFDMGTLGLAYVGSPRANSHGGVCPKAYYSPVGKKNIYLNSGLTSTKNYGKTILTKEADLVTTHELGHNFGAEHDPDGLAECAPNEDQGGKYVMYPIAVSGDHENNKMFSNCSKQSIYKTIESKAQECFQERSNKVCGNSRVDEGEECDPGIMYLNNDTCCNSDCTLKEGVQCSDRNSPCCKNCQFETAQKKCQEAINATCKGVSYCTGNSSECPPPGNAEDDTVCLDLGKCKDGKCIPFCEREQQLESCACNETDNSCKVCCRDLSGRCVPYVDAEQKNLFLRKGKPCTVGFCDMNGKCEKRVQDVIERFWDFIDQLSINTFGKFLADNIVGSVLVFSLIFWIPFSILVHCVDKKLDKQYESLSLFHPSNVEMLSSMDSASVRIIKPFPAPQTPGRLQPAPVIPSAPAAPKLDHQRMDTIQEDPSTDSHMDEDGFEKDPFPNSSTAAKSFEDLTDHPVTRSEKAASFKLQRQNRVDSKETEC

Molecule: O=C(CCC(Sc1ccc(Br)cc1)C(=O)NO)NO (stereo not drawn) [Example 134, 4-Hydroxycarbamoyl-4-(4-bromo-benzenesulfanyl)-butyric acid hydroxyamide]
- MMP 13 % inhibition at 0.2 µM (HTS) (MMP 13): 25%
- TACE % inhibition at 1 µM (TACE; Examples 110-168): -9.31%

Molecule: 3-Bromo-2-chloro-thiophene-2-sulfonic acid 4-(1-hydroxycarbamoyl-heptylsulfonyl)-hydroxyamide [Example 239]
- MMP 13 % inhibition at 36 nM (HTS) (MMP 13): 54%
- TACE % inhibition at 1 µM (TACE; Examples 169-240): 45.9%

Molecule: (1-Hydroxycarbamoyl-propane-1-sulfanyl)-propionic acid hydroxyamide [Example 122]
- MMP 13 % inhibition at 0.2 µM (HTS) (MMP 13): 0%
- TACE % inhibition at 1 µM (TACE; Examples 110-168): 3.1%

Molecule: CCCCCCC(C(=O)NO)S(=O)(=O)c1ncc[nH]1 (stereo not drawn) [Example 194, 2-(1H-Imidazole-2-sulfonyl)-octanoic acid hydroxyamide]
- inhibition at 0.036 µM (MMP 13): -17%
- inhibition at 1 µM (TACE; Examples 169-240): 5.4%

Molecule: CCCCCCC(Sc1ccc(NC)cc1)C(=O)NO (stereo not drawn) [Example 229, 2-(4-Methylamino-phenylsulfanyl)-octanoic acid hydroxyamide]
- inhibition at 0.036 µM (MMP 13): 29%
- inhibition at 1 µM (TACE; Examples 169-240): 34.4%

Molecule: O=C(NO)C(COCc1ccccc1)[S+]([O-])Cc1ccccc1Cl (stereo not drawn) [Example 150, 3-Benzyloxy-N-hydroxy-2-(2-chloro-benzylsulfinyl)-propionamide]
- inhibition at 0.2 µM (MMP 13): 54%
- inhibition at 1 µM (TACE; Examples 110-168): 1.82%

Molecule: (1-Hydroxycarbamoyl-propane-1-sulfinyl)-acetic acid hydroxy amide [Example 121]
- MMP 13 % inhibition at 0.2 µM (HTS) (MMP 13): 0%
- TACE % inhibition at 1 µM (TACE; Examples 110-168): 6.1%

Molecule: CCCCCCC(C(=O)NO)[S+]([O-])c1cccc2cccnc12 (stereo not drawn) [Example 190, 2-(Quinoline-8-sulfinyl)-octanoic acid hydroxyamide]
- inhibition at 0.036 µM (MMP 13): -35%
- inhibition at 1 µM (TACE; Examples 169-240): 38.3%

Molecule: O=C(NO)C(Cc1ccccc1)S(=O)(=O)c1ccc(O)cc1 (stereo not drawn) [Example 127, 2-(4-Hydroxybenzenesulfonyl)-N-hydroxy-3-phenyl-propionamide]
- inhibition at 0.2 µM (MMP 13): 47%
- inhibition at 1 µM (TACE; Examples 110-168): 29.2%

Molecule: CCCCCCC(C(=O)NO)[S+]([O-])c1nc(-c2ccccc2)cs1 (stereo not drawn) [Example 179, 2-(4-Phenyl-thiazole-2-sulfinyl)-octanoic acid hydroxyamide]
- inhibition at 0.036 µM (MMP 13): 12%
- inhibition at 1 µM (TACE; Examples 169-240): 42.7%

Molecule: O=C(CCC(Sc1ccccc1C(F)(F)F)C(=O)NO)NO (stereo not drawn) [Example 137, 4-Hydroxycarbamoyl-4-(2-trifluoromethyl-benzenesulfanyl)-butyric acid hydroxyamide]
- MMP 13 % inhibition at 0.2 µM (HTS) (MMP 13): 83%
- TACE % inhibition at 1 µM (TACE; Examples 110-168): 13.35%

Molecule: CCCCCCC(Sc1nnnn1C)C(=O)NO (stereo not drawn) [Example 176, 2-(1-Methyl-1H-tetrazol-5-ylsulfanyl)-octanoic acid hydroxyamide]
- inhibition at 0.036 µM (MMP 13): 6%
- inhibition at 1 µM (TACE; Examples 169-240): 26.6%

Molecule: Benzo[1,2,5]thiadiazole-4-sulfonic acid 4-(1-hydroxycarbamoyl-heptylsulfonyl)-hydroxyamide [Example 240]
- MMP 13 % inhibition at 36 nM (HTS) (MMP 13): 48%
- TACE % inhibition at 1 µM (TACE; Examples 169-240): 40.3%

Molecule: CC(C)C(C(=O)NO)[S+]([O-])c1ccc2ccccc2c1 (stereo not drawn) [Example 115, N-Hydroxy-3-methyl-2-(naphthalen-2-ylsulfinyl)-butyramide]
- inhibition at 0.2 µM (MMP 13): 0%
- inhibition at 1 µM (TACE; Examples 110-168): 0%

Molecule: COc1ccc(SC(C)C(=O)NO)cc1 (stereo not drawn) [Example 111, N-Hydroxy-2-(4-methoxy-benzenesulfanyl)-propionamide]
- MMP 13 % inhibition at 0.2 µM (HTS) (MMP 13): 10%
- TACE % inhibition at 1 µM (TACE; Examples 110-168): 40.4%

Molecule: CCCCCCC(C(=O)NO)S(=O)(=O)c1cccc(C(=O)NO)c1 (stereo not drawn) [Example 192, 3-(1-Hydroxycarbamoyl-heptylsulfonyl)-benzoic acid hydroxyamide]
- inhibition at 0.036 µM (MMP 13): -32%
- inhibition at 1 µM (TACE; Examples 169-240): 33.2%

Molecule: 5-Chloro-1,3-dimethyl-1H-pyrazole-4-sulfonic acid 4-(1-hydroxycarbamoyl-heptylsulfinyl)-hydroxyamide [Example 235]
- MMP 13 % inhibition at 36 nM (HTS) (MMP 13): 59%
- TACE % inhibition at 1 µM (TACE; Examples 169-240): 48.3%

Molecule: CCCCCCC(Sc1ccc(Nc2ccncc2)cc1)C(=O)NO (stereo not drawn) [Example 227, 2-[4-(Pyridin-4-ylamino)-phenylsulfanyl]-octanoic acid hydroxyamide]
- inhibition at 0.036 µM (MMP 13): 15%
- inhibition at 1 µM (TACE; Examples 169-240): 7.3%

Molecule: COc1ccc(S(=O)(=O)C(C)C(=O)NO)cc1 (stereo not drawn) [Example 110, N-Hydroxy-2-(4-methoxy-benzenesulfonyl)-propionamide]
- inhibition at 0.2 µM (MMP 13): 75%
- inhibition at 1 µM (TACE; Examples 110-168): 17.6%

Molecule: O=C(NO)C(Cc1ccccc1)[S+]([O-])c1ccc(O)cc1 (stereo not drawn) [Example 126, 2-(4-Hydroxybenzenesulfinyl)-N-hydroxy-3-phenyl-propionamide]
- inhibition at 0.2 µM (MMP 13): 25%
- inhibition at 1 µM (TACE; Examples 110-168): 10.4%

Molecule: 2,5-Dichloro-thiophene-3-sulfonic acid 4-(1-hydroxycarbamoyl-heptylsulfanyl)-hydroxyamide [Example 233]
- MMP 13 % inhibition at 36 nM (HTS) (MMP 13): 33%
- TACE % inhibition at 1 µM (TACE; Examples 169-240): 19.8%

Molecule: CCCCCCC(Sc1ccc(N2CCCCC2)cc1)C(=O)NO (stereo not drawn) [Example 230, 2-(4-Piperidin-1-yl-phenylsulfanyl)-octanoic acid hydroxyamide]
- inhibition at 0.036 µM (MMP 13): 29%
- IC50 (TACE; Examples 169-240, read-out: TACE IC50): 700 nM
- inhibition at 1 µM (TACE; Examples 169-240): 72.1%

Molecule: CC(C)C(Sc1ccc2ccccc2c1)C(=O)NO (stereo not drawn) [Example 114, N-hydroxy-3-methyl-2-(naphthalen-2-ylsulfanyl)-butyramide]
- inhibition at 0.2 µM (MMP 13): 0%
- inhibition at 1 µM (TACE; Examples 110-168): 0%

Molecule: CCCCCCC(C(=O)NO)S(=O)(=O)c1ccc(CCC(=O)NO)cc1 (stereo not drawn) [Example 193, 3-[4-(1-Hydroxycarbamoyl-heptylsulfonyl)-phenyl]-propionic acid hydroxy amide]
- inhibition at 0.036 µM (MMP 13): -32%
- inhibition at 1 µM (TACE; Examples 169-240): 14.9%

Molecule: O=C(NO)C(Cc1cnc[nH]1)[S+]([O-])c1ccc(Br)cc1 (stereo not drawn) [Example 153, 2-(4-bromo-benzenesulfinyl)-N-hydroxy-3-(3H-imidazol-4-yl)-propionamide]
- inhibition at 0.2 µM (MMP 13): 12%
- inhibition at 1 µM (TACE; Examples 110-168): 11.8%

Molecule: CCCCCCC(Sc1nccs1)C(=O)NO (stereo not drawn) [Example 186, 2-(Thiazol-2-ylsulfanyl)-octanoic acid hydroxyamide]
- inhibition at 0.036 µM (MMP 13): -14%
- inhibition at 1 µM (TACE; Examples 169-240): 19.5%

Molecule: O=C(NO)C(Cc1cnc[nH]1)S(=O)(=O)c1ccc(Cl)cc1 (stereo not drawn) [Example 154, 2-(4-chloro-benzenesulfonyl)-N-hydroxy-3-(3H-imidazol-4-yl)-propionamide]
- inhibition at 0.2 µM (MMP 13): 89%
- inhibition at 1 µM (TACE; Examples 110-168): 13.1%

Molecule: CCCCCCC(C(=O)NO)S(=O)(=O)CC(=O)Nc1ccc2ccccc2c1 (stereo not drawn) [Example 197, 2-(Naphthalen-2-ylcarbamoylmethanesulfonyl)-octanoic acid hydroxyamide]
- inhibition at 0.036 µM (MMP 13): -33%
- inhibition at 1 µM (TACE; Examples 169-240): 17.8%

Molecule: CCCCCCC(SCC1NC(=O)NC1=O)C(=O)NO (stereo not drawn) [Example 187, 2-(2,5-Dioxo-imidazolidin-4-ylmethylsulfanyl)-octanoic acid hydroxyamide]
- inhibition at 0.036 µM (MMP 13): -14%
- inhibition at 1 µM (TACE; Examples 169-240): 85.5%

Molecule: CCCCCCC(Sc1nc(-c2ccccc2)cs1)C(=O)NO (stereo not drawn) [Example 172, 2-(4-Phenyl-thiazole-2-sulfanyl)-octanoic acid hydroxyamide]
- MMP 13 % inhibition at 36 nM (HTS) (MMP 13): 34%
- TACE % inhibition at 1 µM (TACE; Examples 169-240): 29.4%

Molecule: CCCCCCC(C(=O)NO)[S+]([O-])c1ccc(OC)c(OC)c1 (stereo not drawn) [Example 166, 2-(3,4-Dimethoxybenzenesulfinyl)-octanoic acid hydroxyamide]
- inhibition at 0.2 µM (MMP 13): 9%
- inhibition at 1 µM (TACE; Examples 110-168): 4.16%

— patent EP0970046B1, “N-HYDROXY-2-(ALKYL, ARYL, OR HETEROARYL SULFANYL, SULFINYL OR SULFONYL)-3-SUBSTITUTED ALKYL, ARYL OR HETEROARYLAMIDES AS MATRIX METALLOPROTEINASE INHIBITORS” (Wyeth Holdings Corporation, priority 1997, dated 1998)
